In ChEMBL document CHEMBL2029328, “Identification and structure-activity relationships of a novel series of estrogen receptor ligands based on 7-thiabicyclo[2.2.1]hept-2-ene-7-oxide” (J Med Chem, 2012):

Legend:
[1] = target: T1, Estrogen receptor (Homo sapiens) (UniProt P03372); assay: Displacement of [3H]estradiol from human ERalpha after 18 to 24 hrs
T1 sequence (whole entry): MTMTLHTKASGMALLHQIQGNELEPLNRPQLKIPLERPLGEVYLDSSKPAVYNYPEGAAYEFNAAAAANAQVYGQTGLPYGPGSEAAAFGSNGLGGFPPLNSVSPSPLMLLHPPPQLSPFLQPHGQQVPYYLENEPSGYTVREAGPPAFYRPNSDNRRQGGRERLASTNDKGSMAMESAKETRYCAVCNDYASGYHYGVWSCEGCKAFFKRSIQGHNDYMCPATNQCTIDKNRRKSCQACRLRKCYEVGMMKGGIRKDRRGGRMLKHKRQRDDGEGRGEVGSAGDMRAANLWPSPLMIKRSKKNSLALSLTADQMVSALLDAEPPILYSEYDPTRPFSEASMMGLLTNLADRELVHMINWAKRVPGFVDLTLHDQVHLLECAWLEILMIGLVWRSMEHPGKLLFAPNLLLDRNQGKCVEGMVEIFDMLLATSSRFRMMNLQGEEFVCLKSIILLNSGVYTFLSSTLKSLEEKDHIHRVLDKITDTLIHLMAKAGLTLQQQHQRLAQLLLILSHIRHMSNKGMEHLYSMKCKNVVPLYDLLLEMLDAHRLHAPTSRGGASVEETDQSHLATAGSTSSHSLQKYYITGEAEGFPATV

Estrogen receptor beta [2] = target: T2, Estrogen receptor beta (Homo sapiens, UniProt Q92731); assay: Displacement of [3H]estradiol from human ERbeta after 18 to 24 hrs
T2 sequence (Q92731 whole entry): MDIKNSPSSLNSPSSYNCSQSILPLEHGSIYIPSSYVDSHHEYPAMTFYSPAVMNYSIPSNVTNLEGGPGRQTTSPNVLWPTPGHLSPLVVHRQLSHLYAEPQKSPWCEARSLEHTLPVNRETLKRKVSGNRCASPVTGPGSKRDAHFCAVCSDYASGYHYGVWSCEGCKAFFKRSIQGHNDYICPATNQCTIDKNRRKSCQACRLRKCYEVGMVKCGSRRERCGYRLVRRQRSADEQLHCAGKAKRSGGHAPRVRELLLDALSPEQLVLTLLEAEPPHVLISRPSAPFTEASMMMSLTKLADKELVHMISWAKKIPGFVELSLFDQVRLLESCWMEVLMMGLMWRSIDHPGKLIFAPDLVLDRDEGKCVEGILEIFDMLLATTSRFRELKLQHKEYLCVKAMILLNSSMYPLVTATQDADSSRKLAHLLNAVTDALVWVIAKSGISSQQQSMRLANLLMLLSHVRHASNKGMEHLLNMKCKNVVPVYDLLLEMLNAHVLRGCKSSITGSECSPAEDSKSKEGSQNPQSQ

[3] = target: T1, Estrogen receptor (Homo sapiens); assay: Agonist activity at human ERalpha expressed in HepG2 cells up to 10^-5 M after 24 hrs by luciferase reporter gene assay relative to E2; assay type: functional, cell-based
Estrogen receptor beta [4] = target: T2, Estrogen receptor beta; assay: Agonist activity at human ERbeta expressed in HepG2 cells up to 10^-5 M after 24 hrs by luciferase reporter gene assay relative to E2; assay type: functional, cell-based
Estrogen receptor = target: T3, Estrogen receptor (Homo sapiens, UniProt P03372)
T3 sequence (P03372 whole entry): T1 sequence (whole entry)
Description: Agonist activity at human ERalpha expressed in HepG2 cells after 24 hrs by luciferase reporter gene assay

Estrogen receptor beta [5] = target: T2, Estrogen receptor beta
Description: Agonist activity at human ERbeta expressed in HepG2 cells after 24 hrs by luciferase reporter gene assay

## CCOC(=O)[C@@H]1[C@H](C(=O)OCC)[C@@H]2C(c3ccc(O)c(C)c3)=C(c3ccc(O)c(C)c3)[C@H]1[S+]2[O-] (some centres undefined)
[1]
  RBA: 0.026%
Estrogen receptor beta [2]
  RBA: 0.019%
[3]
  Activity: 22%
Estrogen receptor beta [4]
  Activity: 3.6%

## CCOC(=O)[C@@H]1[C@H](C(=O)OCC)[C@@H]2C(c3ccc(O)cc3)=C(c3ccc(O)cc3)[C@H]1[S+]2[O-] (some centres undefined)
[1]
  RBA: 0.022%
Estrogen receptor beta [2]
  RBA: 0.048%
[3]
  Activity: 55%
Estrogen receptor beta [4]
  Activity: 27%

## O=C1[C@@H]2[C@H](C(=O)N1c1ccccc1)[C@@H]1C(c3ccc(O)cc3)=C(c3ccc(O)cc3)[C@H]2[S+]1[O-] (mixture of isomers)
[1]
  RBA: 0.017%
Estrogen receptor beta [2]
  RBA: 0.013%
[3]
  Activity: 31%
Estrogen receptor beta [4]
  Activity: 24%
Estrogen receptor
  EC50: 7.1 µM

## Cc1cc(O)ccc1C1=C(c2ccc(O)cc2C)[C@H]2[C@H]3C(=O)N(c4ccccc4)C(=O)[C@H]3[C@@H]1[S+]2[O-] (mixture of isomers)
[1]
  RBA: 0.016%
Estrogen receptor beta [2]
  RBA: 0.014%
[3]
  Activity: 65%
Estrogen receptor beta [4]
  Activity: 82%
Estrogen receptor
  EC50: 0.15 µM
Estrogen receptor beta [5]
  EC50: 0.8 µM

## Cc1cc(C2=C(c3ccc(O)c(C)c3)[C@H]3[C@H]4C(=O)N(c5ccccc5)C(=O)[C@H]4[C@@H]2[S+]3[O-])ccc1O (mixture of isomers)
[1]
  RBA: 0.009%
Estrogen receptor beta [2]
  RBA: 0.007%
[3]
  Activity: 29%
Estrogen receptor beta [4]
  Activity: 3.4%

## Cc1cc(C2=C(c3ccc(O)c(C)c3)[C@H]3[C@@H](S(=O)(=O)Oc4cccc5ccccc45)C[C@@H]2[S+]3[O-])ccc1O (relative stereo)
[1]
  RBA: 0.236%
Estrogen receptor beta [2]
  RBA: 0.019%
[3]
  Activity: 42%
Estrogen receptor beta [4]
  Activity: 10%
Estrogen receptor
  EC50: 0.77 µM

## O=S(=O)(Oc1ccccc1)[C@H]1C[C@H]2C(c3ccc(O)cc3)=C(c3ccc(O)cc3)[C@@H]1[S+]2[O-] (relative stereo)
[1]
  RBA: 0.956%
Estrogen receptor beta [2]
  RBA: 0.11%
[3]
  Activity: 85%
Estrogen receptor beta [4]
  Activity: 3.4%
Estrogen receptor
  EC50: 0.67 µM

## O=S(=O)(Oc1ccc(O)cc1)[C@H]1C[C@H]2C(c3ccc(O)cc3)=C(c3ccc(O)cc3)[C@@H]1[S+]2[O-] (relative stereo)
[1]
  RBA: 0.077%
Estrogen receptor beta [2]
  RBA: 0.071%
[3]
  Activity: 48%
Estrogen receptor beta [4]
  Activity: 10%
Estrogen receptor
  EC50: 1.1 µM

## Cc1cc(O)ccc1C1=C(c2ccc(O)cc2C)[C@H]2[C@@H](S(=O)(=O)Oc3ccccc3)C[C@@H]1[S+]2[O-] (relative stereo)
[1]
  RBA: 8.11%
Estrogen receptor beta [2]
  RBA: 0.348%
[3]
  Activity: 62%
Estrogen receptor beta [4]
  Activity: 66%
Estrogen receptor
  EC50: 0.00014 µM

## COc1ccc(OS(=O)(=O)[C@H]2C[C@H]3C(c4ccc(O)cc4C)=C(c4ccc(O)cc4C)[C@@H]2[S+]3[O-])cc1 (relative stereo)
[1]
  RBA: 0.741%
Estrogen receptor beta [2]
  RBA: 0.091%
[3]
  Activity: 76%
Estrogen receptor beta [4]
  Activity: 32%
Estrogen receptor
  EC50: 0.21 µM

## Cc1cc(O)ccc1C1=C(c2ccc(O)cc2C)[C@H]2[C@@H](S(=O)(=O)Oc3ccccc3F)C[C@@H]1[S+]2[O-] (relative stereo)
[1]
  RBA: 3.53%
Estrogen receptor beta [2]
  RBA: 0.138%
[3]
  Activity: 56%
Estrogen receptor beta [4]
  Activity: 54%
Estrogen receptor
  EC50: 0.0022 µM

## Cc1cc(O)ccc1C1=C(c2ccc(O)cc2C)[C@H]2[C@@H](S(=O)(=O)Oc3ccccc3Cl)C[C@@H]1[S+]2[O-] (relative stereo)
[1]
  RBA: 2.49%
Estrogen receptor beta [2]
  RBA: 0.227%
[3]
  Activity: 73%
Estrogen receptor beta [4]
  Activity: 46%
Estrogen receptor
  EC50: 0.0028 µM

## Cc1cc(O)ccc1C1=C(c2ccc(O)cc2C)[C@H]2[C@@H](S(=O)(=O)Oc3ccccc3Br)C[C@@H]1[S+]2[O-] (relative stereo)
[1]
  RBA: 2.21%
Estrogen receptor beta [2]
  RBA: 0.07%
[3]
  Activity: 67%
Estrogen receptor beta [4]
  Activity: 21%
Estrogen receptor
  EC50: 0.014 µM

## Cc1cc(O)ccc1C1=C(c2ccc(O)cc2C)[C@H]2[C@@H](S(=O)(=O)Oc3ccc(F)cc3)C[C@@H]1[S+]2[O-] (relative stereo)
[1]
  RBA: 2.18%
Estrogen receptor beta [2]
  RBA: 0.08%
[3]
  Activity: 74%
Estrogen receptor beta [4]
  Activity: 45%
Estrogen receptor
  EC50: 0.2 µM

## Cc1cc(O)ccc1C1=C(c2ccc(O)cc2C)[C@H]2[C@@H](S(=O)(=O)Oc3ccc(Cl)cc3)C[C@@H]1[S+]2[O-] (relative stereo)
[1]
  RBA: 2.13%
Estrogen receptor beta [2]
  RBA: 0.083%
[3]
  Activity: 67%
Estrogen receptor beta [4]
  Activity: 50%
Estrogen receptor
  EC50: 0.11 µM

## Cc1cc(O)ccc1C1=C(c2ccc(O)cc2C)[C@H]2[C@@H](S(=O)(=O)Oc3ccc(Br)cc3)C[C@@H]1[S+]2[O-] (relative stereo)
[1]
  RBA: 3.37%
Estrogen receptor beta [2]
  RBA: 0.297%
[3]
  Activity: 71%
Estrogen receptor beta [4]
  Activity: 100%
Estrogen receptor
  EC50: 0.11 µM

## Cc1cc(O)ccc1C1=C(c2ccc(O)cc2C)[C@H]2[C@@H](S(=O)(=O)Oc3cccc4ccccc34)C[C@@H]1[S+]2[O-] (relative stereo)
[1]
  RBA: 0.998%
Estrogen receptor beta [2]
  RBA: 0.18%
[3]
  Activity: 59%
Estrogen receptor beta [4]
  Activity: 83%
Estrogen receptor
  EC50: 0.027 µM

## Cc1cc(O)ccc1C1=C(c2ccc(O)cc2C)[C@H]2[C@@H](S(=O)(=O)Oc3ccc(O)cc3)C[C@@H]1[S+]2[O-] (relative stereo)
[1]
  RBA: 2.21%
Estrogen receptor beta [2]
  RBA: 0.812%
[3]
  Activity: 58%
Estrogen receptor beta [4]
  Activity: 82%
Estrogen receptor
  EC50: 0.0092 µM

## Cc1cc(C2=C(c3ccc(O)c(C)c3)[C@H]3[C@@H](S(=O)(=O)Oc4ccccc4)C[C@@H]2[S+]3[O-])ccc1O (relative stereo)
[1]
  RBA: 3.49%
Estrogen receptor beta [2]
  RBA: 0.014%
[3]
  Activity: 65%
Estrogen receptor beta [4]
  Activity: 3.8%
Estrogen receptor
  EC50: 0.012 µM

## COc1ccc(OS(=O)(=O)[C@H]2C[C@H]3C(c4ccc(O)c(C)c4)=C(c4ccc(O)c(C)c4)[C@@H]2[S+]3[O-])cc1 (relative stereo)
[1]
  RBA: 0.31%
Estrogen receptor beta [2]
  RBA: 0.021%
[3]
  Activity: 57%
Estrogen receptor beta [4]
  Activity: 9.8%
Estrogen receptor
  EC50: 11 µM

## Cc1cc(C2=C(c3ccc(O)c(C)c3)[C@H]3[C@@H](S(=O)(=O)Oc4ccccc4F)C[C@@H]2[S+]3[O-])ccc1O (relative stereo)
Estrogen receptor beta [2]
  RBA: 0.01%
[3]
  Activity: 55%
Estrogen receptor beta [4]
  Activity: 0%
Estrogen receptor
  EC50: 1.3 µM

## Cc1cc(C2=C(c3ccc(O)c(C)c3)[C@H]3[C@@H](S(=O)(=O)Oc4ccccc4Cl)C[C@@H]2[S+]3[O-])ccc1O (relative stereo)
[1]
  RBA: 1.18%
Estrogen receptor beta [2]
  RBA: 0.022%
[3]
  Activity: 72%
Estrogen receptor beta [4]
  Activity: 0%
Estrogen receptor
  EC50: 2 µM

## Cc1cc(C2=C(c3ccc(O)c(C)c3)[C@H]3[C@@H](S(=O)(=O)Oc4ccccc4Br)C[C@@H]2[S+]3[O-])ccc1O (relative stereo)
[1]
  RBA: 0.516%
Estrogen receptor beta [2]
  RBA: 0.014%
[3]
  Activity: 51%
Estrogen receptor beta [4]
  Activity: 0%
Estrogen receptor
  EC50: 1.2 µM

## Cc1ccc(C2=C(c3ccc(C)cc3)[C@H]3[C@@H](S(=O)(=O)Oc4ccc(O)cc4)C[C@@H]2[S+]3[O-])cc1 (relative stereo)
[1]
  RBA: 0.005%
Estrogen receptor beta [2]
  RBA: 0.011%
[3]
  Activity: 24%
Estrogen receptor beta [4]
  Activity: 10%
Estrogen receptor
  EC50: 5.5 µM

## COc1ccc(OS(=O)(=O)[C@H]2C[C@H]3C(c4ccc(O)cc4)=C(c4ccc(O)cc4)[C@@H]2[S+]3[O-])cc1 (relative stereo)
[1]
  RBA: 0.074%
Estrogen receptor beta [2]
  RBA: 0.08%
[3]
  Activity: 48%
Estrogen receptor beta [4]
  Activity: 19%

## Cc1cc(C2=C(c3ccc(O)c(C)c3)[C@H]3[C@@H](S(=O)(=O)Oc4ccc(O)cc4)C[C@@H]2[S+]3[O-])ccc1O (relative stereo)
[1]
  RBA: 0.109%
Estrogen receptor beta [2]
  RBA: 0.009%

## Cc1cc(O)ccc1C1=C(c2ccc(O)cc2C)[C@H]2[C@@H](S(=O)(=O)Oc3cccc(Cl)c3)C[C@@H]1[S+]2[O-] (relative stereo)
[1]
  RBA: 1.3%
Estrogen receptor beta [2]
  RBA: 0.088%

## O=S(=O)(Oc1ccc(O)cc1)[C@H]1C[C@H]2C(c3ccccc3)=C(c3ccccc3)[C@@H]1[S+]2[O-] (relative stereo)
[1]
  RBA: 0.005%
Estrogen receptor beta [2]
  RBA: 0.008%
[3]
  Activity: 22%
Estrogen receptor beta [4]
  Activity: 0%
